Data taken from patent US8461183B2, “PPAR agonist compounds, preparation and uses” (Genfit, priority 2008, dated 2013).

Assays:
db/db mouse [1] = assay: Glucose tolerance test in the db/db mouse; format: in vivo; settings: 30 mpk, treated 9 days, oral glucose 1 g/kg after fasting
Description: (§1) The aim of this study is to evaluate in vivo the antidiabetic character of the compounds according to the invention, in the db/db mouse (Berger J et al., 1996). The antidiabetic effect of the compounds is evaluated by measuring glycemia and insulinemia after 8 days of treatment. In diabetic animals (as in humans), administration of glucose leads to a significant increase in the plasma level of insulin. This induced hyperinsulinemia causes a lowering of glycemia, which is delayed in insulin-resistant animals, for example in the db/db mouse.
After 9 days, the animals were deprived of food for 16 hours before carrying out the glucose tolerance test. The latter consists of a single administration of glucose after fasting (administered orally at a dose of 1 g/kg). Blood samples were then taken from time to time to study the evolution of plasma glycemia.
(§2) Glucose was determined by enzyme assays (bioMérieux-Lyons-France) according to the suppliers recommendations.

db/db mouse [2] = assay: Antidiabetic character in the db/db mouse: plasma glycemia, insulinemia, HOMA index; format: in vivo; settings: 30 mpk oral, 8 days
Description: as §1
Male db/db mice (CERJ—Le Genest St Isle-France) are used for this experiment. After acclimation for one week, the mice were weighed and put into groups of 8 animals, selected in such a way that the distribution of their bodyweight and of their fasting glycemia determined for the first time before the experiment are uniform. The compound tested was suspended in carboxymethylcellulose (Sigma C4888) and administered by stomach tube, at a rate of once a day for 9 days at the chosen dose. The animals had free access to water and food (standard diet) and were housed in ventilated cages with a rhythm of light and darkness of 12 hours/12 hours at a constant temperature of 20±3° C. The food intake and weight gain were recorded throughout the experiment. After administration of the compound for 8 days, a blood sample was taken by puncture in the retro-orbital sinus of the animals under volatile anesthesia with isoflurane in order to measure the plasma concentrations of glucose and insulin.
Assay of murine insulin is carried out by the Elisa method (Insulin Elisa Kit-Crystal Chem. USA). A mouse anti-insulin antibody is fixed on a microplate. The serum to be assayed for insulin is then deposited on this plate. A guinea pig anti-insulin antibody will recognize the insulin/mouse monoclonal anti-insulin antibody complex and bind to it. […]
as §2

[3] = tested on: PPARδ target genes (PDK4, CPT1b, UCP2) in murine myocytes; assay: Expression of PPARδ target genes in murine myocytes (differentiated C2C12 cells); format: cell-based; settings: 24 hours, Cpd 7 at 0.1, 1, 10 μM, Cpd 24 at 0.2, 2, 20 μM, normalized to 36B4
Description: The PPARδ agonist properties previously measured in vitro were evaluated by measuring, in murine myocytes, the expression of genes involved in lipid and carbohydrate metabolism and energy expenditure (PDK4, CPT1b, UCP2). Regulation of expression of these genes, in this cell type, is a direct consequence of the activation of PPARδ by the compounds according to the invention. The greater the increase in expression of the genes, the more the compound according to the invention is a stimulator of metabolism in muscle cells (Dressel U et al., 2003).
The C2C12 murine cells (from ECACC) are cultivated in DMEM medium (Gibco; 41965-039) supplemented with 1% L-glutamine (Gibco; 25030), 1% penicillin/streptomycin (VWR; BWSTL0022/100) and 10% decomplemented fetal calf serum (FCS. Gibco; 10270-106).
The cells are seeded in 24-well plates at a density of 50×10^3 cells/well. At confluence, the medium is replaced with a differentiation medium (base culture medium supplemented with 2% of horse serum (Gibco; 26050-088)) then culture is continued at 37° C. and 5% CO2 for 7 days in order to permit differentiation of the myoblasts into myocytes.
After 6 days of differentiation, the cells are put in a deprivation medium (base culture medium without serum) for 6 hours. The cells are then treated with the compounds according to the invention in the deprivation medium. The compounds according to the invention were tested at doses of 0.1, 1, 10 μM and 0.2, 2 and 20 μM respectively. The compounds according to the invention were dissolved in dimethylsulfoxide (DMSO, Sigma; D5879). The cells are treated for 24 hours at 37° C., 5% CO2. The effects for the compounds tested were compared with the effect of DMSO alone at a concentration of 0.1%.
These procedures were performed on the cells essentially as described in Example 10 (point c) of the Protocols.
The following primer pairs specific to the genes investigated were used: […]

## COc1nc(-c2ccc(C(F)(F)F)cc2)ccc1COc1ccc(OCC(=O)O)cc1 [Cpd 24, 2-(4-((2-methoxy-6-(4-(trifluoromethyl)phenyl)pyridin-3-yl)methoxy)-phenoxy)ethanoic acid]
db/db mouse [1]
  glucose tolerance test (insulin resistance): marked decrease in insulin resistance
db/db mouse [2]
  glycemic profile (plasma glucose): overall improvement
  insulinemic profile (plasma insulin): overall improvement
db/db mouse [2]; calculated from plasma glucose and insulin
  HOMA index: decrease
[3]
  expression of CPT1b: significant effects of stimulating expression
  expression of PDK4: significant effects of stimulating expression
  expression of UCP2: significant effects of stimulating expression
